These results are taken from ChEMBL document CHEMBL1212836, “Pyridazinopsoralens of wide chemotherapeutic interest” (Bioorg Med Chem, 2010).

Test [1] concerns HL-60. Briefly: Cytotoxicity against human HL60 cells treated under dark condition after 72 hrs by trypan blue assay. Format: functional, cell-based. Conditions: HL-60, 72 h.
In test [2] the test system is HL-60. Briefly: Cytotoxicity against human HL60 cells treated under dark condition after 24 hrs by trypan blue assay. In kind it is functional, cell-based. Conditions: HL-60, 24 h.
The subject of test [3] is Nucleic Acid. The test is described as follows: Stabilization of supercoiled pBR322 DNA-human recombinant topoisomerase 2 complex assessed as linear DNA formation at 8 uM after 60 mins. In kind it is nucleic-acid assay. Particulars: Escherichia coli.
Test [4] deals with HeLa. Briefly: Cytotoxicity against human HeLa cells treated under dark condition after 24 hrs by trypan blue assay. Format: functional, cell-based.
In test [5] the test system is Nucleic Acid. The test is described as follows: Binding affinity to Salmon testes DNA assessed as drug-DNA complex formation at drug/DNA ratio 0.02 to 0.08 by linear flow dichroism method. Format: nucleic-acid assay. Conditions: Salmonidae.
Test [6] concerns HeLa. Briefly: Cytotoxicity against human HeLa cells after 24 hrs by trypan blue assay in presence of 0.789 J cm-2 of UVA light. In kind it is functional, cell-based. Conditions: light or radiation study.
For test [7], the system named is HL-60. Briefly: Cytotoxicity against human HL60 cells after 24 hrs by trypan blue assay in presence of 0.789 J cm-2 of UVA light. Conditions: HL-60, light or radiation study. Format: functional, cell-based.
The test system of test [8] is Nucleic Acid. Briefly: Stabilization of supercoiled pBR322 DNA-human recombinant topoisomerase 2 complex assessed as linear DNA formation at 5 to 50 uM after 60 mins. In kind it is nucleic-acid assay. Conditions: Escherichia coli.
Test [9] addresses DNA topoisomerase 2-alpha (Homo sapiens) (UniProt P11388). Briefly: Inhibition of human recombinant topoisomerase 2alpha-mediated relaxation of supercoiled pBR322 DNA after 60 mins by agarose gel electrophoresis.
Test [10] has as its system Nucleic Acid. The test is described as follows: Induction of Escherichia coli supercoiled pBR322 DNA cleavage at 5 uM after 30 mins by gel electrophoresis. In kind it is nucleic-acid assay.
Test [11] relates to Nucleic Acid. Briefly: Induction of Escherichia coli supercoiled pBR322 DNA cleavage at 50 uM after 30 mins by gel electrophoresis. In kind it is nucleic-acid assay.
Test [12] deals with Nucleic Acid. Briefly: Induction of Escherichia coli supercoiled pBR322 DNA cleavage at up to 200 uM after 30 mins by gel electrophoresis. Format: nucleic-acid assay.

Active and inactive are the calls of the source. The calls are words filed in the database; no cut-off is given here.

Chain of DNA topoisomerase 2-alpha (Homo sapiens) (P11388 whole entry): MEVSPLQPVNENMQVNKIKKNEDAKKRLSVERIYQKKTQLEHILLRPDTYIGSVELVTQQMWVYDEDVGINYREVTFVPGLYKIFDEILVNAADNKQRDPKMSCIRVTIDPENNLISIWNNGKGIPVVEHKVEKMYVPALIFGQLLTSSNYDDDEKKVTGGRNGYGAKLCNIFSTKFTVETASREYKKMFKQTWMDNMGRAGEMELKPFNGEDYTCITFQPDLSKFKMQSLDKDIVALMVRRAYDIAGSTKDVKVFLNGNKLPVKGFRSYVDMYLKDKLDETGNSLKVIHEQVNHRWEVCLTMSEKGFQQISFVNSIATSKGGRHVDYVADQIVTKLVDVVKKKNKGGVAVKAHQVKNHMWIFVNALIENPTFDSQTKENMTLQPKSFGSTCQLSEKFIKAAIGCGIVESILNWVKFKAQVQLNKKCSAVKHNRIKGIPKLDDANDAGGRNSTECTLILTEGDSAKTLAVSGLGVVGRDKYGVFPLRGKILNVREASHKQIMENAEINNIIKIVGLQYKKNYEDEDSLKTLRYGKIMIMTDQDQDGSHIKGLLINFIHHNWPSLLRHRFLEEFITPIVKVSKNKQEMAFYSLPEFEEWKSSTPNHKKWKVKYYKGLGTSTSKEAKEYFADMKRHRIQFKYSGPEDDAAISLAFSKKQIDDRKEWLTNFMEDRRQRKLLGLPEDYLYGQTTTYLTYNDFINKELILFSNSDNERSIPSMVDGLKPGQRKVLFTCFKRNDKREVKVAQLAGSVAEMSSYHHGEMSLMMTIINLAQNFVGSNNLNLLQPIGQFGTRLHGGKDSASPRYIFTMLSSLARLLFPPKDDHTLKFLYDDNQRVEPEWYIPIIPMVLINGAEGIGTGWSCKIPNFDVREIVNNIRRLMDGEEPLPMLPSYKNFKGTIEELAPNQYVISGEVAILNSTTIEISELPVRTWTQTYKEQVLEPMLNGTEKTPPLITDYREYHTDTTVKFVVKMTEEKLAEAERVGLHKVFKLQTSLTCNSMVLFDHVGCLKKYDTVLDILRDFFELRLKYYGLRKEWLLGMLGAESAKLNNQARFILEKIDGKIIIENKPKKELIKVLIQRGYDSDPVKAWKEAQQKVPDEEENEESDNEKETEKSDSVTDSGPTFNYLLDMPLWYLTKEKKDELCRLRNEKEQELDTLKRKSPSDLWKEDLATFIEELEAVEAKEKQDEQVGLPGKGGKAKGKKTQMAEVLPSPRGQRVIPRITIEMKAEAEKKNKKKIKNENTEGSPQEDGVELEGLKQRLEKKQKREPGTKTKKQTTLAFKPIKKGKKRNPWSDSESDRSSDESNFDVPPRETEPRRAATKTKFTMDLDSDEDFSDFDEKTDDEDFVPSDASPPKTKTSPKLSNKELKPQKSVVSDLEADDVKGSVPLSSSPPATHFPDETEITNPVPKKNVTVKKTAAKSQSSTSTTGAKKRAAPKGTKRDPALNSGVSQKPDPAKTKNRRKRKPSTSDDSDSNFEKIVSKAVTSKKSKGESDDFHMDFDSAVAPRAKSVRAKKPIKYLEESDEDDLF

The IC50 is the concentration that inhibits the measured activity by half. For the molecule `COc1c2occc2cc2ccc(=O)oc12` [METHOXSALEN], the IC50 with HL-60 [1] and with HL-60 [2] was over 20 µM each time.
As for `COc1cc(NS(C)(=O)=O)ccc1Nc1c2ccccc2nc2ccccc12`, the outcome with Nucleic Acid [3] was Active.
For `Cc1cc(=O)oc2c(C)c3oc4c(C(=O)NCCCN(C)C)nnc(C(=O)NCCCN(C)C)c4c3cc12`, the IC50 in the test with HeLa [4] is 11.5 µM; in the test on HeLa [6] it was 3.7 µM; with HL-60 [1], 0.61 µM; in the test on HL-60 [2], 3.8 µM; in the test with HL-60 [7] it was 2.6 µM. The result with Nucleic Acid [5] was Active.
On to `Cc1cc(=O)oc2c(C)c3oc4c(C(=O)NCCN(C)C)nnc(C(=O)NCCN(C)C)c4c3cc12`, for which the IC50 came out at 11.9 µM in the test with HeLa [4]; 2.4 µM with HeLa [6]; 0.41 µM in the test with HL-60 [1]; 0.9 µM in the test with HL-60 [2]; 1.3 µM in the test on HL-60 [7]. In the test with Nucleic Acid [5], the result was Active.
As to `CCN(CC)CCCNC(=O)c1nnc(C(=O)NCCCN(CC)CC)c2c1oc1c(C)c3oc(=O)cc(C)c3cc12`, the IC50 is 14.7 µM in the test on HeLa [4]; 3.5 µM with HeLa [6]; 0.37 µM in the test on HL-60 [1]; 0.9 µM in the test with HL-60 [2]; 0.8 µM in the test on HL-60 [7]. Also, the result in the test on Nucleic Acid [5], with Nucleic Acid [3] and in the test with Nucleic Acid [10] was Active. In the test on Nucleic Acid [8], the result was inactive. Moreover, the Activity entry in [9] was “Dose-dependent effect”.
`CCN(CC)CCNC(=O)c1nnc(C(=O)NCCN(CC)CC)c2c1oc1c(C)c3oc(=O)cc(C)c3cc12`: the IC50 stood at 17.2 µM in the test with HeLa [4]; 4.4 µM in the test with HeLa [6]; 0.57 µM in the test with HL-60 [1]; 1.2 µM in the test with HL-60 [2]; 3.5 µM in the test with HL-60 [7]. In addition, the outcome in the test on Nucleic Acid [5] was Active.
As for `CCN(CC)CCCNC(=O)c1nncc2oc3c(C)c4oc(=O)cc(C)c4cc3c12`, the outcome in the test with Nucleic Acid [11] and in the test on Nucleic Acid [5] was Active. In addition, the IC50 in the test with HeLa [4] worked out at 11.5 µM; in the test on HeLa [6] it was 7.4 µM; in the test on HL-60 [1], 0.9 µM; in the test with HL-60 [2], 2.1 µM; in the test with HL-60 [7] it was 2.2 µM. The Activity result in test [9] is “Dose-dependent effect”.
`Cc1cc(=O)oc2c(C)c3oc4cnncc4c3cc12`: the IC50 in the test on HeLa [4] was 8.5 µM; in the test on HeLa [6], 3.8 µM; with HL-60 [1], 2.6 µM; in the test on HL-60 [2] it was 3.9 µM; in the test with HL-60 [7], 4.1 µM. Also, the result in the test on Nucleic Acid [5] was Active. For the same molecule, the Activity entry in test [9] is “Dose-dependent effect”. Further, the result in the test with Nucleic Acid [12] was inactive.
